The record followed here is patent publication US9938322B2, “β-hairpin peptidomimetics” (priority 2013, dated 2018).

The structures appear in SMILES notation. Where a SMILES comes first, the peptide text is derived from it. [ ]: non-standard residue; d: D form. Tyr(3-F) = N[C@@H](Cc1ccc(O)c(F)c1)C(=O)O; Cha = N[C@@H](CC1CCCCC1)C(=O)O; Chg = N[C@H](C(=O)O)C1CCCCC1; Tle = CC(C)(C)[C@H](N)C(=O)O; dDab = NCC[C@@H](N)C(=O)O; Orn = NCCC[C@H](N)C(=O)O; Dab = NCC[C@H](N)C(=O)O; Nva = CCC[C@H](N)C(=O)O; Abu = CC[C@H](N)C(=O)O; Dap = NC[C@H](N)C(=O)O

For the series, the system named is human red blood cells (hRBC). Briefly: Hemolysis of human red blood cells. The class given is cell-based. The conditions noted are these: red cells of human, 1 h, 100. Here is the method: Lyophilized peptides were weighed on a Microbalance (Mettler MT5) and dissolved in sterile water to a final concentration of 1 mg/ml. Stock solutions were kept at +4° C., light protected.
The peptides were tested for their hemolytic activity against human red blood cells (hRBC). Fresh hRBC were washed three times with phosphate buffered saline (PBS) and centrifuged for 10 min at 2000×g. Compounds (100 μg/ml) were incubated with 20% hRBC (v/v) for 1 h at 37° C. and shaking at 300 rpm. The final erythrocyte concentration was approximately 0.9×10^9 cells/ml. A value of 0% and 100% cell lyses, respectively, was determined by incubation of hRBC in the presence of PBS containing 0.001% acetic acid and 2.5% Triton X-100 in H2O, respectively. The samples were centrifuged, the supernatants were 8-fold diluted in PBS buffer and the optical densities (OD) were measured at 540 nm. The 100% lyses value (OD540H2O) gave an OD540 of approximately 0.5-1.0.
Percent hemolysis was calculated as follows: (OD540peptide/OD540H2O)×100%.
As to `CC(C)C[C@@H]1NC(=O)[C@@H]2CCCN2C(=O)[C@H]2CCCN2C(=O)[C@H](CO)NC(=O)[C@H](C)NC(=O)[C@H](C(C)(C)C)NC(=O)[C@H](CCN)NC(=O)[C@H](Cc2c[nH]c3ccccc23)NC(=O)[C@H](CCN)NC(=O)[C@@H](CCN)NC(=O)[C@H](CCN)NC(=O)[C@H](CCN)NC(=O)[C@H](Cc2ccc(O)cc2)NC(=O)[C@H](CO)NC1=O` [compound 96] (cyclo(LSY[Dab][Dab][dDab][Dab]W[Dab][Tle]AS[dP]P)), the “Hemolysis at 100 μg/ml” value stood at 1%.
The same measure for `CCC[C@@H]1NC(=O)[C@@H]2CCCN2C(=O)[C@H]2CCCN2C(=O)[C@H](CO)NC(=O)[C@H](CO)NC(=O)[C@H](C(C)(C)C)NC(=O)[C@H](CCN)NC(=O)[C@H](Cc2c[nH]c3ccccc23)NC(=O)[C@H](CCN)NC(=O)[C@@H](CCN)NC(=O)[C@H](CCCN)NC(=O)[C@H](CCN)NC(=O)[C@H](CC2CCCCC2)NC(=O)[C@H](CO)NC1=O` [compound 144] (cyclo([Nva]S[Cha][Dab][Orn][dDab][Dab]W[Dab][Tle]SS[dP]P)): 7%.
Regarding `CCC[C@@H]1NC(=O)[C@@H]2CCCN2C(=O)[C@H]2CCCN2C(=O)[C@H](CO)NC(=O)[C@H](C)NC(=O)[C@H](C(C)(C)C)NC(=O)[C@H](CCN)NC(=O)[C@H](Cc2c[nH]c3ccccc23)NC(=O)[C@H](CCN)NC(=O)[C@@H](CCN)NC(=O)[C@H](CCCN)NC(=O)[C@H](CCN)NC(=O)[C@H](Cc2ccc(O)cc2)NC(=O)[C@H](CO)NC1=O` [compound 47] (cyclo([Nva]SY[Dab][Orn][dDab][Dab]W[Dab][Tle]AS[dP]P)), the “Hemolysis at 100 μg/ml” value was 1%.
For `CC[C@@H]1NC(=O)[C@H]([C@@H](C)CC)NC(=O)[C@@H]2CCCN2C(=O)[C@H]2CCCN2C(=O)[C@H](CO)NC(=O)[C@H](C)NC(=O)[C@H](C(C)(C)C)NC(=O)[C@H](CCN)NC(=O)[C@H](Cc2c[nH]c3ccccc23)NC(=O)[C@H](CCN)NC(=O)[C@@H](CCN)NC(=O)[C@H](CCCN)NC(=O)[C@H](CCN)NC(=O)[C@H](Cc2ccc(O)cc2)NC1=O` [compound 126] (cyclo(I[Abu]Y[Dab][Orn][dDab][Dab]W[Dab][Tle]AS[dP]P)) the value was 0.5%; for `CCC[C@@H]1NC(=O)[C@@H]2CCCN2C(=O)[C@H]2CCCN2C(=O)[C@H](CO)NC(=O)[C@H](C)NC(=O)[C@H](C(C)(C)C)NC(=O)[C@H](CCN)NC(=O)[C@H](Cc2c[nH]c3ccccc23)NC(=O)[C@H](CCN)NC(=O)[C@@H](CCN)NC(=O)[C@H](CCCN)NC(=O)[C@H](CCN)NC(=O)[C@H](Cc2ccc(O)c(F)c2)NC(=O)[C@H](CO)NC1=O` [compound 105] (cyclo([Nva]S[Tyr(3-F)][Dab][Orn][dDab][Dab]W[Dab][Tle]AS[dP]P)), 1%.
Turning to `CC(C)C[C@@H]1NC(=O)[C@@H]2CCCN2C(=O)[C@H]2CCCN2C(=O)[C@H](CO)NC(=O)[C@H](C)NC(=O)[C@H](C(C)(C)C)NC(=O)[C@H](CCN)NC(=O)[C@H](Cc2c[nH]c3ccccc23)NC(=O)[C@H](CCN)NC(=O)[C@@H](CCN)NC(=O)[C@H](CCCN)NC(=O)[C@H](CCCN)NC(=O)[C@H](Cc2ccc(O)cc2)NC(=O)[C@H](CO)NC1=O` [compound 87] (cyclo(LSY[Orn][Orn][dDab][Dab]W[Dab][Tle]AS[dP]P)), the “Hemolysis at 100 μg/ml” value worked out at 1%.
For `CC(C)C[C@@H]1NC(=O)[C@@H]2CCCN2C(=O)[C@H]2CCCN2C(=O)[C@H](CO)NC(=O)[C@H](C)NC(=O)[C@H](C2CCCCC2)NC(=O)[C@H](CCN)NC(=O)[C@H](Cc2c[nH]c3ccccc23)NC(=O)[C@H](CCN)NC(=O)[C@@H](CCN)NC(=O)[C@H](CCCN)NC(=O)[C@H](CCN)NC(=O)[C@H](Cc2ccc(O)cc2)NC(=O)[C@H](C)NC1=O` [compound 129] (cyclo(LAY[Dab][Orn][dDab][Dab]W[Dab][Chg]AS[dP]P)) the value was 1%; for `CCC[C@@H]1NC(=O)[C@@H]2CCCN2C(=O)[C@H]2CCCN2C(=O)[C@H](CO)NC(=O)[C@H](C)NC(=O)[C@H](CC2CCCCC2)NC(=O)[C@H](CCN)NC(=O)[C@H](Cc2c[nH]c3ccccc23)NC(=O)[C@H](CCN)NC(=O)[C@@H](CCN)NC(=O)[C@H](CCCCN)NC(=O)[C@H](CCN)NC(=O)[C@H](C(C)(C)C)NC(=O)[C@H](CO)NC1=O` [compound 139] (cyclo([Nva]S[Tle][Dab]K[dDab][Dab]W[Dab][Cha]AS[dP]P)), 5%.
The same measure for `CC(C)C[C@@H]1NC(=O)[C@@H]2CCCN2C(=O)[C@H]2CCCN2C(=O)[C@H](CO)NC(=O)[C@H](C)NC(=O)[C@H](C(C)(C)C)NC(=O)[C@H](CCN)NC(=O)[C@H](Cc2c[nH]c3ccccc23)NC(=O)[C@H](CCN)NC(=O)[C@@H](CCN)NC(=O)[C@H](CCCN)NC(=O)[C@H](CCN)NC(=O)[C@H](CC2CCCCC2)NC(=O)[C@H](CO)NC1=O` [compound 135] (cyclo(LS[Cha][Dab][Orn][dDab][Dab]W[Dab][Tle]AS[dP]P)): 5%.
In the case of `CC(C)C[C@@H]1NC(=O)[C@@H]2CCCN2C(=O)[C@H]2CCCN2C(=O)[C@H](CO)NC(=O)[C@H](C)NC(=O)[C@H](C(C)(C)C)NC(=O)[C@H](CCN)NC(=O)[C@H](Cc2c[nH]c3ccccc23)NC(=O)[C@H](CCN)NC(=O)[C@@H](CCN)NC(=O)[C@H](CCCN)NC(=O)[C@H](CCN)NC(=O)[C@H](Cc2ccc(O)cc2)NC(=O)[C@H](CO)NC1=O` [compound 36] (cyclo(LSY[Dab][Orn][dDab][Dab]W[Dab][Tle]AS[dP]P)), the “Hemolysis at 100 μg/ml” value stood at 1%.
For `C[C@@H]1NC(=O)[C@H](C(C)(C)C)NC(=O)[C@H](CCN)NC(=O)[C@H](Cc2c[nH]c3ccccc23)NC(=O)[C@H](CCN)NC(=O)[C@@H](CCN)NC(=O)[C@H](CCCN)NC(=O)[C@H](CCN)NC(=O)[C@H](Cc2ccc(O)cc2)NC(=O)[C@H](CN)NC(=O)[C@H](Cc2ccccc2)NC(=O)[C@@H]2CCCN2C(=O)[C@H]2CCCN2C(=O)[C@H](CO)NC1=O` [compound 160] (cyclo(F[Dap]Y[Dab][Orn][dDab][Dab]W[Dab][Tle]AS[dP]P)) the value was 1%; for `C[C@@H]1NC(=O)[C@H](Cc2c[nH]c3ccccc23)NC(=O)[C@@H]2CCCN2C(=O)[C@H]2CCCN2C(=O)[C@H](CO)NC(=O)[C@H](C)NC(=O)[C@H](C(C)(C)C)NC(=O)[C@H](CCN)NC(=O)[C@H](Cc2c[nH]c3ccccc23)NC(=O)[C@H](CCN)NC(=O)[C@@H](CCN)NC(=O)[C@H](CCCN)NC(=O)[C@H](CCN)NC(=O)[C@H](Cc2ccc(O)cc2)NC1=O` [compound 4] (cyclo(WAY[Dab][Orn][dDab][Dab]W[Dab][Tle]AS[dP]P)), 1%.
The same measure for `CC[C@H](C)[C@@H]1NC(=O)[C@@H]2CCCN2C(=O)[C@H]2CCCN2C(=O)[C@H](CO)NC(=O)[C@H](CO)NC(=O)[C@H](C(C)(C)C)NC(=O)[C@H](CCN)NC(=O)[C@H](Cc2c[nH]c3ccccc23)NC(=O)[C@H](CCN)NC(=O)[C@@H](CCN)NC(=O)[C@H](CCCN)NC(=O)[C@H](CCN)NC(=O)[C@H](CC2CCCCC2)NC(=O)[C@H](C)NC1=O` [compound 151] (cyclo(IA[Cha][Dab][Orn][dDab][Dab]W[Dab][Tle]SS[dP]P)): 7%; for `CC(C)C[C@@H]1NC(=O)[C@@H]2CCCN2C(=O)[C@H]2CCCN2C(=O)[C@H](CO)NC(=O)[C@H](C)NC(=O)[C@H](C(C)(C)C)NC(=O)[C@H](CCN)NC(=O)[C@H](Cc2c[nH]c3ccccc23)NC(=O)[C@H](CCN)NC(=O)[C@@H](CCN)NC(=O)[C@H](CCCN)NC(=O)[C@H](CN)NC(=O)[C@H](Cc2ccc(O)cc2)NC(=O)[C@H](CO)NC1=O` [compound 91] (cyclo(LSY[Dap][Orn][dDab][Dab]W[Dab][Tle]AS[dP]P)): 0%; for `CC(C)C[C@@H]1NC(=O)[C@H](C)NC(=O)[C@H](C(C)(C)C)NC(=O)[C@H](CCN)NC(=O)[C@H](Cc2c[nH]c3ccccc23)NC(=O)[C@H](CCN)NC(=O)[C@@H](CCN)NC(=O)[C@H](CCCN)NC(=O)[C@H](CCN)NC(=O)[C@H](Cc2ccc(O)cc2)NC(=O)[C@H](CO)NC(=O)[C@H]([C@@H](C)O)NC(=O)[C@@H]2CCCN2C(=O)[C@H]2CCCN2C1=O` [compound 161] (cyclo(TSY[Dab][Orn][dDab][Dab]W[Dab][Tle]AL[dP]P)): 2%.
For `CC(C)C[C@@H]1NC(=O)[C@@H]2CCCN2C(=O)[C@H]2CCCN2C(=O)[C@H](CO)NC(=O)[C@@H](C)NC(=O)[C@H](C(C)(C)C)NC(=O)[C@H](CCN)NC(=O)[C@H](Cc2c[nH]c3ccccc23)NC(=O)[C@H](CCN)NC(=O)[C@@H](CCN)NC(=O)[C@H](CCCN)NC(=O)[C@H](CCN)NC(=O)[C@H](Cc2ccc(O)cc2)NC(=O)[C@H](CO)NC1=O` [compound 154] (cyclo(LSY[Dab][Orn][dDab][Dab]W[Dab][Tle][dA]S[dP]P)) the value was 0%.
For the compound `CC[C@H](C)[C@@H]1NC(=O)[C@@H]2CCCN2C(=O)[C@H]2CCCN2C(=O)[C@H](CO)NC(=O)[C@H](C)NC(=O)[C@H](C(C)(C)C)NC(=O)[C@H](CCN)NC(=O)[C@H](Cc2c[nH]c3ccccc23)NC(=O)[C@H](CCN)NC(=O)[C@@H](CCN)NC(=O)[C@H](CCCN)NC(=O)[C@H](CCN)NC(=O)[C@H](Cc2ccc(O)cc2)NC(=O)[C@H](C)NC1=O` [compound 125] (cyclo(IAY[Dab][Orn][dDab][Dab]W[Dab][Tle]AS[dP]P)), the “Hemolysis at 100 μg/ml” value is recorded as 0%.
